According to patent US20200131132A1, “FARNESOID X RECEPTOR AGONISTS AND USES THEREOF” (Metacrine, Inc., priority 2017, published 2020):

Target: T1, hFXR (Homo sapiens, UniProt Q96RI1)
T1 construct: expressed in transfected cells; host or cells: CV-1 cells
T1 sequence (Q96RI1 1-486): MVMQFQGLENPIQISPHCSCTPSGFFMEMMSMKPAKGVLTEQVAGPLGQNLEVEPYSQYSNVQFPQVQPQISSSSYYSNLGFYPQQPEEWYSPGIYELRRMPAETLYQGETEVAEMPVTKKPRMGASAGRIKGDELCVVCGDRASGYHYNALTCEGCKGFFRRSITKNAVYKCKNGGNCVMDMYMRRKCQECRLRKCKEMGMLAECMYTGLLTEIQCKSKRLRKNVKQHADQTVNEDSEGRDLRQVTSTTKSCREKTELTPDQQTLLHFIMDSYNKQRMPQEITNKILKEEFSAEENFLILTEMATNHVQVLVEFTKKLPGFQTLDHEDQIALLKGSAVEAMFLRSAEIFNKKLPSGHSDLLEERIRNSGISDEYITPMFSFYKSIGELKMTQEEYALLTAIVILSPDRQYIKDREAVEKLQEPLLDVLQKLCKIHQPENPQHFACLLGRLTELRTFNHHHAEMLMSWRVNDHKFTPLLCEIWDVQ
T1 sequence (P19793 1-462 partner): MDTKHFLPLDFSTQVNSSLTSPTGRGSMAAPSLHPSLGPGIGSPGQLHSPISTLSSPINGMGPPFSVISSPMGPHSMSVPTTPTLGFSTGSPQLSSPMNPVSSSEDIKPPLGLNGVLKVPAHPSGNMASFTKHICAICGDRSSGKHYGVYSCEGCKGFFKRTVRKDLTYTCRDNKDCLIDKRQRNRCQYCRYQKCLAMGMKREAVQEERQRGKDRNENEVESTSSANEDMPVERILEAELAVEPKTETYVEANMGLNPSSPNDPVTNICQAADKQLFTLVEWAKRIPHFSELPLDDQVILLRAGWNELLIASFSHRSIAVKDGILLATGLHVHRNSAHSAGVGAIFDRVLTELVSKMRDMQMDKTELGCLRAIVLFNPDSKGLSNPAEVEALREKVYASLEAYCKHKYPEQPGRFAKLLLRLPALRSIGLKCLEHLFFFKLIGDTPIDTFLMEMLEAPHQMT
Experiment: In Vitro FXR Assay (TK)
Format: cell-based
Settings: CV-1 cells transfected with hFXR, hRXR, TK-ECRE-luc and pCMX-YFP; compounds incubated 18 hrs; luminescence
Outline: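 CV-1 cells in DMEM with 10% charcoal-stripped FBS were co-transfected with hFXR, hRXR, TK-ECRE-luc reporter and pCMX-YFP plasmids. After 18 h, compounds serially diluted in DMSO were added for a further 18 h, then cells were lysed and luminescence read.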

Row | Compound | EC50 [µM]
1 | COc1ccc(-c2ccc(CN(C(=O)CC(C)(C)C)c3nccc4cc(OC5CN(C)C5)ccc34)cc2)cc1C [Compound 30, N-((4′-Methoxy-3′-methyl-[1,1′-biphenyl]-4-yl)methyl)-3,3-dimethyl-N-(6-((1-methylazetidin-3-yl)oxy)isoquinolin-1-yl)butanamide] | > 10
2 | COc1ccc(-c2ccc(CN(C(=O)CC(C)(C)C)c3nccc4cc(OC(C)CO)ccc34)cc2)cc1C (stereo not shown) [Compound 31, N-(6-((1-Hydroxypropan-2-yl)oxy)isoquinolin-1-yl)-N-((4′-methoxy-3′-methyl-[1,1′-biphenyl]-4-yl)methyl)-3,3-dimethylbutanamide] | ≤ 1
3 | COc1ccc(-c2ccc(CN(C(=O)CC(C)(C)C)c3nccc4cc(OCCS(C)(=O)=O)ccc34)cc2)cc1C [Compound 32, N-((4′-Methoxy-3′-methyl-[1,1′-biphenyl]-4-yl)methyl)-3,3-dimethyl-N-(6-(2-(methylsulfonyl)ethoxy)isoquinolin-1-yl)butanamide] | ≤ 1
4 | COc1ccc(-c2ccc(CN(C(=O)CC(C)(C)C)c3nccc4cc(OCC[S+](C)[O-])ccc34)cc2)cc1C (stereo not shown) [Compound 33, N-((4′-Methoxy-3′-methyl-[1,1′-biphenyl]-4-yl)methyl)-3,3-dimethyl-N-(6-(2-(methylsulfinyl)ethoxy)isoquinolin-1-yl)butanamide] | ≤ 1
